Source: patent publication US20110039795A1, “2'-O,3'-N-BRIDGED MACROLIDES” (priority 2008, published 2011)

Test system: CD1 mice
Test: Phorbol 12-myristate 13-acetate induced ear edema in CD1 mice
Format: in vivo
Conditions: Mus musculus, topical, 6 h; applied topically once in a dose 500 μg/ear; PMA induced ear edema
Experimental: Phorbol 12-Myristate 13-Acetate Induced Ear Edema in CD1 Mice
Male CD1 mice (Charles River, France) weighing 30-40 g are randomly grouped (n=8 in test group of which the untreated ear serves as negative control; 8 in positive control group which also serves as their own negative control group). Test compounds, as well as vehicle (Trans-phase Delivery system, containing benzyl alcohol 10%, acetone 40% and isopropanol 50%) (all from Kemika, Croatia), are administered topically to the internal surface of the left ear 30 minutes prior to administration of phorbol 12-myristate 13-acetate (PMA) (Sigma, USA). Test compounds are administered at a dose 500 μg in 15 μL per ear. 30 minutes later, 0.01% PMA solution in acetone is applied topically to the inner surface of the left ear of each animal in a volume of 12 μL per ear. During the treatment and challenge, animals are anesthetized with anesthesia by inhalation. 6 h following challenge, animals are euthanized by intraperitoneal thiopental injection (PLIVA, Croatia). For assessing the auricular edema, 8 mm discs are cut out of left and right auricular pinna and weighed. The degree of edema is calculated by subtracting the weight of 8 mm disc of the untreated ear from that of the treated contralateral ear. The inhibition of edema in the treated animals is expressed as percentage compared to control mice.

CC[C@H]1OC(=O)[C@H](C)[C@@H](O[C@H]2C[C@@](C)(OC)[C@@H](O)[C@H](C)O2)[C@H](C)[C@@H](O[C@@H]2O[C@H](C)C[C@H]3[C@H]2OC(=NC)N3C)[C@](C)(OC)C[C@@H](C)C(=O)[C@H](C)[C@@H](O)[C@]1(C)O (single isomer, unassigned) [Example 13, 2′-O,3′-N-(Carbonimidoyl)-3′-N-demethyl-N′-methyl-6-O-methyl-erythromycin A] was tested, and the inhibition in vivo at 500 µg/ear was greater than 50%.
CCN=C1O[C@H]2[C@H](O[C@@H]3[C@@H](C)[C@H](O[C@H]4C[C@@](C)(OC)[C@@H](O)[C@H](C)O4)[C@@H](C)C(=O)O[C@H](CC)[C@@](C)(O)[C@H](O)[C@@H](C)C(=O)[C@H](C)C[C@@]3(C)OC)O[C@H](C)C[C@@H]2N1C (single isomer, unassigned) [Example 14, 2′-O,3′-N-(Carbonimidoyl)-3′-N-demethyl-N′-ethyl-6-O-methyl-erythromycin A] gave an inhibition in vivo at 500 µg/ear greater than 50%.
CC[C@H]1OC(=O)[C@H](C)[C@@H](O[C@H]2C[C@@](C)(OC)[C@@H](O)[C@H](C)O2)[C@H](C)[C@@H](O[C@@H]2O[C@H](C)C[C@H]3[C@H]2OC(=NC(C)C)N3C)[C@](C)(O)C[C@@H](C)CN(C)[C@H](C)[C@@H](O)[C@]1(C)O (single isomer, unassigned) [Example 3, 2′-O,3′-N-(Carbonimidoyl)-3′-N-demethyl-9-deoxo-N′-isopropyl-9a-methyl-9a-aza-9a-homoerythromycin A] gave an inhibition in vivo at 500 µg/ear greater than 50%.
In the case of CCN=C1O[C@H]2[C@H](O[C@@H]3[C@@H](C)[C@H](O[C@H]4C[C@@](C)(OC)[C@@H](O)[C@H](C)O4)[C@@H](C)C(=O)O[C@H](CC)[C@@](C)(O)[C@H](O)[C@@H](C)NC(=O)[C@H](C)C[C@@]3(C)OC)O[C@H](C)C[C@@H]2N1C (single isomer, unassigned) [Example 15, 2′-O,3′-N-(Carbonimidoyl)-3′-N-demethyl-N′-ethyl-6-O-methyl-9a-aza-9a-homoerythromycin A], the inhibition in vivo at 500 µg/ear is reported as greater than 50%.
Work on CC[C@H]1OC(=O)[C@H](C)[C@@H](O[C@H]2C[C@@](C)(OC)[C@@H](O)[C@H](C)O2)[C@H](C)[C@@H](O[C@@H]2O[C@H](C)C[C@H]3[C@H]2OC(=NC(C)C)N3C)[C@](C)(OC)C[C@@H](C)C(=O)[C@H](C)[C@@H](O)[C@]1(C)O (single isomer, unassigned) [Example 11, 2′-O,3′-N-(Carbonimidoyl)-3′-N-demethyl-N′-isopropyl-6-O-methyl-erythromycin A] yielded an inhibition in vivo at 500 µg/ear greater than 50%.
CC[C@H]1OC(=O)[C@H](C)[C@@H](O[C@H]2C[C@@](C)(OC)[C@@H](O)[C@H](C)O2)[C@H](C)[C@@H](O[C@@H]2O[C@H](C)C[C@H]3[C@H]2OC(=NC(C)C)N3C)[C@](C)(OC)C[C@@H](C)C(=O)N[C@H](C)[C@@H](O)[C@]1(C)O (single isomer, unassigned) [Example 7, 2′-O,3′-N-(Carbonimidoyl)-3′-N-demethyl-N′-isopropyl-6-O-methyl-9a-aza-9a-homoerythromycin A] showed an inhibition in vivo at 500 µg/ear greater than 50%.
In the case of CC[C@H]1OC(=O)[C@H](C)[C@@H](O[C@H]2C[C@@](C)(OC)[C@@H](O)[C@H](C)O2)[C@H](C)[C@@H](O[C@@H]2O[C@H](C)C[C@H]3[C@H]2O/C(=N/CCCN(CC)CC)N3C)[C@](C)(OC)C[C@@H](C)C(=O)[C@H](C)[C@@H](O)[C@]1(C)O (single isomer, unassigned) [Example 12, 2′-O,3′-N-(Carbonimidoyl)-3′-N-demethyl-N′-[3-(diethylamino)propyl]-6-O-methyl-erythromycin A], the inhibition in vivo at 500 µg/ear is reported as greater than 50%.
For CC[C@H]1OC(=O)[C@H](C)[C@@H](O[C@H]2C[C@@](C)(OC)[C@@H](O)[C@H](C)O2)[C@H](C)[C@@H](O[C@@H]2O[C@H](C)C[C@H]3[C@H]2OC(=Nc2cccc4ccccc24)N3C)[C@](C)(O)C[C@@H](C)CN(C)[C@H](C)[C@@H](O)[C@]1(C)O (single isomer, unassigned) [Example 2, 2′-O,3′-N-(Carbonimidoyl)-3′-N-demethyl-9-deoxo-9a-methyl-N′-(1-naphthyl)-9a-aza-9a-homoerythromycin A], the inhibition in vivo at 500 µg/ear was greater than 50%.
In the case of CC[C@H]1OC(=O)[C@H](C)[C@@H](O[C@H]2C[C@@](C)(OC)[C@@H](O)[C@H](C)O2)[C@H](C)[C@@H](O[C@@H]2O[C@H](C)C[C@H]3[C@H]2OC(=NCc2ccccc2)N3C)[C@](C)(O)C[C@@H](C)CN(C)[C@H](C)[C@@H](O)[C@]1(C)O (single isomer, unassigned) [Example 1, N′-Benzyl-2′-O,3′-N-(carbonimidoyl)-3′-N-demethyl-9-deoxo-9a-methyl-9a-aza-9a-homoerythromycin A], the inhibition in vivo at 500 µg/ear is reported as greater than 50%.
In the case of CC[C@H]1OC(=O)[C@H](C)[C@@H](O[C@H]2C[C@@](C)(OC)[C@@H](O)[C@H](C)O2)[C@H](C)[C@@H](O[C@@H]2O[C@H](C)C[C@H]3[C@H]2OC(=NCCCN(CC)CC)N3C)[C@](C)(OC)C[C@@H](C)C(=O)N[C@H](C)[C@@H](O)[C@]1(C)O (single isomer, unassigned) [Example 8, 2′-O,3′-N-(Carbonimidoyl)-3′-N-demethyl-N′-[3-(diethylamino)propyl]-6-O-methyl-9a-aza-9a-homoerythromycin A], the inhibition in vivo at 500 µg/ear is reported as greater than 50%.
